One assay addresses T1, human cathepsin B (Homo sapiens, UniProt P07858).
T1 construct: purchased ab185438
In words: Cathepsin B inhibitory assay, fluorometric kit (ab185438), AFC substrate. The assay is classed as biochemical. Conditions: 10 µM. On the procedure: Cathepsin B inhibitory assay was performed using a fluorometric-based assay kit as per company instructions (ab185438). The assay kit utilizes the ability of cathepsin B to cleave synthetic AFC (7-Amino-4-trifluoromethyl coumarin) substrate to freely release AFC; moreover, this AFC can be quantified by a fluorometer. In the presence of cathepsin B inhibitors, the cleavage of the substrate was reduced, and there was a decrease in the total loss of the AFC fluorescence. The experiments were performed in triplicate. The test compounds (virtual screened hits) were prepared in different concentrations of 2.5, 5.0, 10.0, 15.0, and 20.0 µM. […] Next, fluorescence was measured in a kinetic mode for 30–60 min at 37 °C (Ex/Em = 400/505). Two timepoints were used—0 and 15 min (ΔT = T2 − T1)—and corresponding values for the fluorescence (ΔRFU = RFU2-RFU1) were used to calculate the slope for all test inhibitor samples and EC, by dividing the net ΔRFU values by the time ΔT. The percentage of relative inhibition was calculated using the following formula: % Relative Inhibition=Slope of EC−Slope of Sample /Slope of EC×100

The subject of the next assay is cathepsin B. Conditions: cited from earlier work; for pIC50 Experimental: Table 4.
For another assay, the system named is AD animal models. Conditions: cited from earlier work.
[1] abbreviates: Figure 1, previously reported inhibitors of cathepsin B, read-out: IC50.
Setting [2] is: class of the experimental IC50, read-out: Activity Scale Experimental.

Read-outs that look alike come from different tables or passages of the source.

For the molecule F-F-FMK, the relative inhibition on human cathepsin B stood at 69.67%.
`O=C1C[C@@H](c2ccc(O)c(-c3c(O)cc(O)c4c(=O)cc(-c5ccc(O)cc5)oc34)c2)Oc2cc(O)cc(O)c21` [AMF4, 2,3-dihydroamentoflavone]: the IC50 with cathepsin B (setting [1]) is 620 nM.
Consider `O=C(CNC(=O)c1ccco1)OCN1C(=O)c2ccccc2C1=O` [Compound S35, (1,3-dioxoisoindol-2-yl)methyl 2-(furan-2-carbonylamino)acetate], for which, in the assay on cathepsin B, the “pIC50 Experimental” value is reported as 5.07. Further, the IC50 with cathepsin B (setting [2]) is greater than 2500 nM.
As to `CCOC(=O)[C@H]1O[C@@H]1C(=O)N[C@@H](CC(C)C)C(=O)NCCC(C)C` [Compound N20, ethyl (2S,3S)-3-[[(2S)-4-methyl-1-(3-methylbutylamino)-1-oxopentan-2-yl]carbamoyl]oxirane-2-carboxylate], the “Aβ in the brain” value in the assay on AD animal models was “reduces Aβ in the brain”. Further, the memory deficits entry in the assay with AD animal models is “improves memory deficits”. Besides, the results for the IC50 with cathepsin B (setting [1]) and in the assay with cathepsin B (setting [2]) were 14 nM and less than 300 nM, respectively. Besides, the “pIC50 Experimental” value with cathepsin B was 8.47.
